Experimental findings from paper PMC7221760, “Structural and Functional Characterization of NadR from Lactococcus lactis” (Molecules, 2020) are described below.

Data set [1] addresses T1, NadRLl (Lactococcus lactis, UniProt Q9CE60).
T1 construct: gene nadR; NMNAT domain residues 8-177, RNK domain residues 178-379
T1 sequence (Q9CE60 1-379): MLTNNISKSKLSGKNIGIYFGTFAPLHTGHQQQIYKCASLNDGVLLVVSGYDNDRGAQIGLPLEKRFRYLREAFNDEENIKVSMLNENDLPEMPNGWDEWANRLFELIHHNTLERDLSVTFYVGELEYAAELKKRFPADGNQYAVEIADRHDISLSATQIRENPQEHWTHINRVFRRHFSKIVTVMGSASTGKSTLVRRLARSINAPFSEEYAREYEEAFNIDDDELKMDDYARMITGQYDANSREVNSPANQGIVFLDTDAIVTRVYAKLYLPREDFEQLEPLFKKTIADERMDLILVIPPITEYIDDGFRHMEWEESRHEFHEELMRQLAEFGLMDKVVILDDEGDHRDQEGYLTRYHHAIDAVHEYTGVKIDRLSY
In words: X-ray crystal structure, […] Å. Format: binding. The note with it: co-crystallised with 5 mM NAD and 5 mM Mg-AMP-PNP, not the active sites.

Data set [2] deals with T1, NadRLl. Briefly: isothermal titration calorimetry. Format: binding. The note with it: read-out: Dissociation Constant-KD. An excerpt:
isothermal titration calorimetry on NadRLl
(Isothermal titration calorimetry measures the heat released or taken up as one component is titrated into another.)

Data set [3] concerns the target T1, NadRLl. Briefly: LDH-coupled NADH absorbance at […] nm (NMN to NAD). Format: biochemical. The following applies: substrate inhibition; 10 mM Mg-ATP; 100 mM Tris/HCl pH 7.5; 25 °C.
For data set [4], the target named is T1, NadRLl. Briefly: X-ray crystal structure, […] Å. The note with it: 5 mM NMN, pH 6.5; site between the two domains, not the active sites. Format: binding.
The target of data set [5] is T1, NadRLl. In words: LDH-coupled NADH absorbance at […] nm (NR to NAD). In kind it is biochemical. The note with it: substrate inhibition; 10 mM Mg-ATP; 100 mM Tris/HCl pH 7.5; 25 °C.
Data set [6] addresses T1, NadRLl. Briefly: X-ray crystal structure, […] Å. Format: binding. The note with it: 5 mM NR, pH 6.5; site between the two domains, not the active sites.
Substrate in data set [7]: NC(=O)c1ccc[n+]([C@@H]2O[C@H](CO)[C@@H](O)[C@H]2O)c1
Briefly: purified protein. Format: biochemical, Lactococcus lactis. The following applies: 10 mM Mg-ATP, 100 mM Tris/HCl pH 7.5, 25 °C, substrate-inhibition model.

Substrate in data set [8]: NC(=O)c1ccc[n+]([C@@H]2O[C@H](COP(=O)([O-])O)[C@@H](O)[C@H]2O)c1
In words: purified protein. Format: biochemical, Lactococcus lactis. The note with it: 10 mM Mg-ATP, 100 mM Tris/HCl pH 7.5, 25 °C, substrate-inhibition model.

Substrate in data set [9]: Nc1ncnc2c1ncn2[C@@H]1O[C@H](COP(=O)(O)OP(=O)(O)OP(=O)(O)O)[C@@H](O)[C@H]1O
Briefly: purified protein. Format: biochemical, Lactococcus lactis. The note with it: 1 mM NMN, 100 mM Tris/HCl pH 7.5, 25 °C, Mg-ATP, Hill coefficient 2.2 ± 0.3.

In the case of `Nc1ncnc2c1ncn2[C@@H]1O[C@H](COP(=O)(O)OP(=O)(O)NP(=O)(O)O)[C@@H](O)[C@H]1O` [AMP-PNP], at NadRLl [1] (mixture with NAD at site between the two domains), the “X-ray crystal structure, 3.00 Å” value is “we observed a mixture of NAD and AMP-PNP bound at this location”. The Kd on NadRLl [2] was determined as 13 ± 1 µM.

For the molecule `Nc1ncnc2c1ncn2[C@@H]1O[C@H](COP(=O)(O)OP(=O)(O)OP(=O)(O)O)[C@@H](O)[C@H]1O` [ATP], the dissociation constant (Kd) at NadRLl [2] was determined as 63 ± 1 µM.

For the molecule `NC(=O)c1ccc[n+]([C@@H]2O[C@H](COP(=O)(O)OP(=O)(O)OC[C@H]3O[C@@H](n4cnc5c(N)ncnc54)[C@H](O)[C@@H]3O)[C@@H](O)[C@H]2O)c1` [NAD], at NadRLl [1] (mixture with AMP-PNP at site between the two domains), the “X-ray crystal structure, 3.00 Å” value was “we observed a mixture of NAD and AMP-PNP bound at this location”.

For `NC(=O)c1ccc[n+]([C@@H]2O[C@H](COP(=O)([O-])O)[C@@H](O)[C@H]2O)c1` [nicotinamide mononucleotide], the “Ki” value on NadRLl [3] worked out at 25400 ± 10800 µM. For the same molecule, on NadRLl [4], the “X-ray crystal structure, 2.70 Å” value is “we obtained structures in the presence of NMN and NR, which both have bound substrates”.

For `NC(=O)c1ccc[n+]([C@@H]2O[C@H](CO)[C@@H](O)[C@H]2O)c1` [nicotinamide riboside], the “Ki” value at NadRLl [5] came to 31400 ± 8100 µM. Besides, the “X-ray crystal structure, 2.30 Å” value on NadRLl [6] was “we obtained structures in the presence of NMN and NR, which both have bound substrates”.

B1: NadRLl (Lactococcus lactis subsp. lactis Il1403) (protein)
chain: T1 sequence (Q9CE60 1-379)
notes: NMNAT domain residues 8-177, RNK domain residues 178-379
With B1, in “purified protein [7]”, the Km was found to be 600 ± 100 µM and the Vmax was 0.4 µmol/min/mg. Besides, in “purified protein [8]”, the Km stood at 500 ± 100 µM and the Vmax turned out to be 1.5 µmol/min/mg. In the data set “purified protein [9]”, the K0.5 was found to be 5.2 ± 0.6 mM and the maximum rate (Vmax) is 1.2 µmol/min/mg.

In general, Kd refers to the equilibrium constant for the complex coming apart. For orientation: Km means the substrate concentration at which the rate is half of its maximum. As a reminder, the Vmax is the top rate of the reaction or transport when substrate is in excess.
